Data reported in patent publication US7569695B2, “Dyes for the detection or quantification of desirable target molecules” (Enzo Life Sciences, Inc., priority 2005, dated 2009).

What was measured:
anti-sense C amplicon = test: Amplification of various amounts of target with fixed dye levels, 29 cycles (Example 37); assay type: biochemical; details: 1:1000 dilution of SYBR Green
Experimental: In the previous experiments, a fixed amount of target was amplified in the presence of varying level of dyes. The eventual use of these dyes is going to be with a fixed amount of dye and varying levels of targets. As such, an experiment was carried out using previously determined optimal levels of dyes and various amounts of input target (again using the anti-sense C as a model). • Dilution 1=1:100,000 • Dilution 2=1:1,000,000 • Dilution 3=1:10,000,000 • Dilution 4=1:100,000,000 • Dilution 5=1:1,000,000,000 • Dilution 6=1:10,000,000,000
Selected amounts of target template were amplified on the Light Cycler (Roche) in the presence of various amounts of Dye 122, Dye 109a and SYBR Green.
A master mixture was made up of: • 380 l of 2×PCR mix described in Example 33 • 15.2 l of 25 mM MgCl2 • 190.0 l of DEPC treated H2O • 7.6 l of 10 mg/ml BSA (New England Biolabs, Beverly, Mass.) • 7.6 l Taq polymease (Perkin Elmer)+7.6 l of TaqStart (Clontech)
2.0 l of target template (1:50,000 dilution of the antisense C amplicon)+2.0 l of various dye concentrations were added to 16 µl of Master mixture and amplified as described previously in Example 33 stopping after 29 cycles. Dye additions were from the 1:1000 dilution of SYBR Green, 1:30 of Dye 109a and 1:30 of Dye 122.
At the highest input level (Dil 2 1:1,000,000 dilution of amplicon) no evidence of amplification is seen in the sample without dye.

[1] = tested on: 78 bp amplicon of the anti-sense C construct; test: Amplification on the Light Cycler in the presence of Dye 122 and 109a, 19 cycles (Example 35); assay type: biochemical
Source text: A target template was amplified on the Light Cycler (Roche) in the presence of various amounts of SYBR Green and Dye 122 from Example 32. In addition, a byproduct from the silica gel chromatography of Dye 109 in step (g) of Example 14 was also used. This compound is believed to have a single protonation of one of the amines of Dye 109 and as such will be termed Dye 109a. The stock of Dye 122 was OD=200 measured at 488 nm and the stock of Dye 109a was OD=200 measured at 498 nm. The template was a 1:50,000 dilution of the 78 bp amplicon of the anti-sense C construct described previously. • A master-mixture was made up of: • 350 µl of 2×PCR mix described in Example 33 • 14 l of 25 mM MgCl2 • 175.0 l of DEPC treated H2O • 7 l of 10 mg/ml BSA (New England Biolabs, Beverly, Mass.) • 7 l Taq polymease (Perkin Elmer)+7 l of TaqStart (Clontech)
2.0 l of target template+2.0 l of various dye dilutions were added to 16 µl of Master mixture, and then amplified as described previously in Example 33 except that the incubation at 45° C. for 10 minutes was eliminated since ung was not used for this series of amplifications. The amplification was stopped after 19 cycles. The results of this series of amplifications are seen in FIG. 3. […] For Dye 109a, similar features were seen where 1:10 was inhibitory (lane 18) and 1:30 was optimal (lanes 19 and 20).

SMILES: CCCN(CCCN(C)C)c1cc(/C=C2/Sc3ccccc3N2C)c2ccccc2[n+]1-c1ccccc1 [SYBR Green, reference compound]
- amplification product (gel analysis, FIG. 5) (anti-sense C amplicon; Dil 2 (1:1,000,000) target input): faint but visible band
- amplification product (gel analysis, FIG. 5) (anti-sense C amplicon; further dilutions of target): do not show any evidence of an amplification product
- amplification (gel analysis, FIG. 3) ([1]; 1:800 dilution of SYBR Green, lanes 4 and 5): best amplification
- amplification (gel analysis, FIG. 3) ([1]; SYBR Green dilutions on either side of 1:800): sharp drop off
